Data reported in PubChem BioAssay (NCI).
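Here, GI50 denotes the concentration required for 50% inhibition of growth. TGI denotes the concentration required for complete inhibition of growth.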

Tests used:
Assay in all cases: NCI tumour cell line growth inhibition, 384-well format
786-0 renal = system: 786-0 renal
A498 renal = system: A498 renal
A549 NSCLC = system: A549 NSCLC
ACHN renal = system: ACHN renal
BT-549 breast = system: BT-549 breast
CAKI-1 renal = system: CAKI-1 renal
CCRF-CEM leukemia = system: CCRF-CEM leukemia
COLO 205 colon = system: COLO 205 colon
DU-145 prostate = system: DU-145 prostate
EKVX NSCLC = system: EKVX NSCLC
HCC-2998 colon = system: HCC-2998 colon
HCT-15 colon = system: HCT-15 colon
HL-60(TB) leukemia = system: HL-60(TB) leukemia
HOP-62 NSCLC = system: HOP-62 NSCLC
HOP-92 NSCLC = system: HOP-92 NSCLC
HS 578T breast = system: HS 578T breast
HT29 colon = system: HT29 colon
IGROV1 ovarian = system: IGROV1 ovarian
K-562 leukemia = system: K-562 leukemia
KM12 colon = system: KM12 colon
LOX IMVI melanoma = system: LOX IMVI melanoma
M14 melanoma = system: M14 melanoma
MALME-3M melanoma = system: MALME-3M melanoma
MCF7 breast = system: MCF7 breast
MDA-MB-231 breast = system: MDA-MB-231 breast
MDA-MB-435 melanoma = system: MDA-MB-435 melanoma
MDA-MB-468 breast = system: MDA-MB-468 breast
MOLT-4 leukemia = system: MOLT-4 leukemia
NCI-H226 lung = system: NCI-H226 lung
NCI-H23 lung = system: NCI-H23 lung
NCI-H322M lung = system: NCI-H322M lung
NCI-H460 NSCLC = system: NCI-H460 NSCLC
NCI-H522 lung = system: NCI-H522 lung
NCI/ADR-RES ovarian = system: NCI/ADR-RES ovarian
OVCAR-3 ovarian = system: OVCAR-3 ovarian
OVCAR-4 ovarian = system: OVCAR-4 ovarian
OVCAR-5 ovarian = system: OVCAR-5 ovarian
OVCAR-8 ovarian = system: OVCAR-8 ovarian
PC-3 prostate = system: PC-3 prostate
RPMI-8226 leukemia = system: RPMI-8226 leukemia
RXF 393 renal = system: RXF 393 renal
SF-268 CNS = system: SF-268 CNS
SF-295 CNS = system: SF-295 CNS
SF-539 CNS = system: SF-539 CNS
SK-MEL-28 melanoma = system: SK-MEL-28 melanoma
SK-MEL-5 melanoma = system: SK-MEL-5 melanoma
SK-OV-3 ovarian = system: SK-OV-3 ovarian
SN12C renal = system: SN12C renal
SNB-19 CNS = system: SNB-19 CNS
SNB-75 CNS = system: SNB-75 CNS
SR leukemia = system: SR leukemia
SW-620 colon = system: SW-620 colon
T-47D breast = system: T-47D breast
TK-10 renal = system: TK-10 renal
UACC-257 melanoma = system: UACC-257 melanoma
UACC-62 melanoma = system: UACC-62 melanoma
UO-31 renal = system: UO-31 renal

C[C@@H]1OCC2(CCN(c3cnc(Sc4ccnc(N)c4Cl)c(N)n3)CC2)[C@@H]1N
GI50 ([…]-0 renal): > 100 µM
TGI (786-0 renal): > 100 µM
GI50 (A498 renal): 4.18 µM
TGI (A498 renal): > 100 µM
GI50 (A549 NSCLC): > 100 µM
TGI (A549 NSCLC): > 100 µM
GI50 (ACHN renal): 4.99 µM
TGI (ACHN renal): > 100 µM
GI50 (BT-549 breast): 35.1 µM
TGI (BT-549 breast): > 100 µM
GI50 (CAKI-1 renal): 0.426 µM
TGI (CAKI-1 renal): > 100 µM
GI50 (CCRF-CEM leukemia): 32 µM
TGI (CCRF-CEM leukemia): > 100 µM
GI50 (COLO 205 colon): > 100 µM
TGI (COLO 205 colon): > 100 µM
GI50 (DU-145 prostate): > 100 µM
TGI (DU-145 prostate): > 100 µM
GI50 (EKVX NSCLC): 16.5 µM
TGI (EKVX NSCLC): > 100 µM
GI50 (HCC-2998 colon): > 100 µM
TGI (HCC-2998 colon): > 100 µM
GI50 (HCT-15 colon): > 100 µM
TGI (HCT-15 colon): > 100 µM
GI50 (HL-60(TB) leukemia): 65.1 µM
TGI (HL-60(TB) leukemia): > 100 µM
GI50 (HOP-62 NSCLC): > 100 µM
TGI (HOP-62 NSCLC): > 100 µM
GI50 (HOP-92 NSCLC): 0.0569 µM
TGI (HOP-92 NSCLC): 1.05 µM
GI50 (HS 578T breast): > 100 µM
TGI (HS 578T breast): > 100 µM
GI50 (HT29 colon): > 100 µM
TGI (HT29 colon): > 100 µM
GI50 (IGROV1 ovarian): 0.918 µM
TGI (IGROV1 ovarian): > 100 µM
GI50 (K-562 leukemia): 0.148 µM
TGI (K-562 leukemia): > 100 µM
GI50 (KM12 colon): 0.621 µM
TGI (KM12 colon): > 100 µM
GI50 (LOX IMVI melanoma): > 100 µM
TGI (LOX IMVI melanoma): > 100 µM
GI50 (M14 melanoma): > 100 µM
TGI (M14 melanoma): > 100 µM
GI50 (MALME-3M melanoma): > 100 µM
TGI (MALME-3M melanoma): > 100 µM
GI50 (MCF7 breast): > 100 µM
TGI (MCF7 breast): > 100 µM
GI50 (MDA-MB-231 breast): > 100 µM
TGI (MDA-MB-231 breast): > 100 µM
GI50 (MDA-MB-435 melanoma): > 100 µM
TGI (MDA-MB-435 melanoma): > 100 µM
GI50 (MDA-MB-468 breast): 0.0533 µM
TGI (MDA-MB-468 breast): 0.355 µM
GI50 (MOLT-4 leukemia): 35.9 µM
TGI (MOLT-4 leukemia): > 100 µM
GI50 (NCI-H226 lung): 1.18 µM
TGI (NCI-H226 lung): > 100 µM
GI50 (NCI-H23 lung): 0.0797 µM
TGI (NCI-H23 lung): 44.2 µM
GI50 (NCI-H322M lung): 0.234 µM
TGI (NCI-H322M lung): > 100 µM
GI50 (NCI-H460 NSCLC): > 100 µM
TGI (NCI-H460 NSCLC): > 100 µM
GI50 (NCI-H522 lung): 1.44 µM
TGI (NCI-H522 lung): > 100 µM
GI50 (NCI/ADR-RES ovarian): 17.7 µM
TGI (NCI/ADR-RES ovarian): > 100 µM
GI50 (OVCAR-3 ovarian): 77.9 µM
TGI (OVCAR-3 ovarian): > 100 µM
GI50 (OVCAR-4 ovarian): > 100 µM
TGI (OVCAR-4 ovarian): > 100 µM
GI50 (OVCAR-5 ovarian): > 100 µM
TGI (OVCAR-5 ovarian): > 100 µM
GI50 (OVCAR-8 ovarian): 44.3 µM
TGI (OVCAR-8 ovarian): > 100 µM
GI50 (PC-3 prostate): > 100 µM
TGI (PC-3 prostate): > 100 µM
GI50 (RPMI-8226 leukemia): 21 µM
TGI (RPMI-8226 leukemia): > 100 µM
GI50 (RXF 393 renal): > 100 µM
TGI (RXF 393 renal): > 100 µM
GI50 (SF-268 CNS): > 100 µM
TGI (SF-268 CNS): > 100 µM
GI50 (SF-295 CNS): > 100 µM
TGI (SF-295 CNS): > 100 µM
GI50 (SF-539 CNS): 34.7 µM
TGI (SF-539 CNS): > 100 µM
GI50 (SK-MEL-28 melanoma): > 100 µM
TGI (SK-MEL-28 melanoma): > 100 µM
GI50 (SK-MEL-5 melanoma): > 100 µM
TGI (SK-MEL-5 melanoma): > 100 µM
GI50 (SK-OV-3 ovarian): 25.2 µM
TGI (SK-OV-3 ovarian): > 100 µM
GI50 (SN12C renal): 3.87 µM
TGI (SN12C renal): > 100 µM
GI50 (SNB-19 CNS): > 100 µM
TGI (SNB-19 CNS): > 100 µM
GI50 (SNB-75 CNS): 51.2 µM
TGI (SNB-75 CNS): > 100 µM
GI50 (SR leukemia): 0.519 µM
TGI (SR leukemia): 13.4 µM
GI50 (SW-620 colon): > 100 µM
TGI (SW-620 colon): > 100 µM
GI50 (T-47D breast): 29.3 µM
TGI (T-47D breast): > 100 µM
GI50 (TK-10 renal): 3.58 µM
TGI (TK-10 renal): > 100 µM
GI50 (UACC-257 melanoma): > 100 µM
TGI (UACC-257 melanoma): > 100 µM
GI50 (UACC-62 melanoma): > 100 µM
TGI (UACC-62 melanoma): > 100 µM
GI50 (UO-31 renal): 27.6 µM
TGI (UO-31 renal): > 100 µM
